Read-outs that look alike come from different tables or passages of the source.
What was measured:
[1] = biological target: CDK7/cyclin H (Homo sapiens, UniProt P50613); experiment: CDK 7 assay; format: biochemical
Description: CTD peptide substrate (biotinyl-Ahx-(Tyr-Ser-Pro-Thr-Ser-Pro-Ser)4-NH2; 1-2 mg/mL) and recombinant human CDK7/cyclin H, CDK9/cyclin TI, or CDK9/cyclin K (0.5-2 μg) were incubated for 45 min at 30° C. in the presence of varying amounts of test compound in 20 mM MOPS pH 7.2, 25 mM β-glycerophosphate, 5 mM EGTA, 1 mM DTT, 1 mM sodium vanadate, 15 mM MgCl2, and 100 μM ATP (containing a trace amount of ^32PγATP) in a total volume of 25 μL in a 96-well microtiter plate. The reaction was stopped by placing the plate on ice for 2 min. Avidin (50 μg) was added to each well, and the plate was incubated at room temp for 30 min. The samples were transferred to a 96-well P81 filter plate, and washed (4×200 μL per well) with 75 mM phosphoric acid. Microscint 40 scintillation liquid (50 μL) was added to each well, and the amount of ^32P incorporation for each sample was measured using a Packard Topcount microplate scintillation counter.

[2] = biological target: T1, aurora-A (Homo sapiens, UniProt O14965); experiment: Aurora-A (human) kinase assay; format: biochemical
T1 construct: purchased Upstate, Dundee, UK
T1 sequence (O14965 1-403): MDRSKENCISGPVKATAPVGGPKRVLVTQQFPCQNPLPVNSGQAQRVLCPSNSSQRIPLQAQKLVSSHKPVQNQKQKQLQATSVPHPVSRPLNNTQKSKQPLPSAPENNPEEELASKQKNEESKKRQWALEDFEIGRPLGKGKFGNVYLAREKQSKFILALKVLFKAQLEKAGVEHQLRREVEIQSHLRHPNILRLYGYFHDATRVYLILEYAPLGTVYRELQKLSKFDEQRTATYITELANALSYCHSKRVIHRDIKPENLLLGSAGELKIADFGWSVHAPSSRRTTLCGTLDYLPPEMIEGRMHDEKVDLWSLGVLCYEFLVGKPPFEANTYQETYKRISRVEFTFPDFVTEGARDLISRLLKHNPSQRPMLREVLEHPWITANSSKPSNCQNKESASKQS
Description: (§1) This was achieved by measurement of incorporation of radioactive phosphate from ATP into Kemptide substrate (LRRASLG), upon phosphorylation by commercially obtained aurora-A (human, Upstate, Dundee, UK). Assays were performed using 96-well plates and appropriate assay buffers (20 mM Tris, 25 mM β-glycerophosphate, 5 mM EGTA, 1 mM DTT, 1 mM sodium vanadate, pH 7.5), into which were added 2-5 ng of active enzyme with 500 μM substrate (Kemptide). The reactions were initiated by addition of MgATP mix (15 mM MgCl2+100 μM ATP with 15-25 kBq per well of [γ-^32P]-ATP) and mixtures incubated for 30 min at 30° C. Reactions were stopped by addition of an equal volume of 75 mM aq orthophosphoric acid, followed by filtration through p81 filterplates (Whatman Polyfiltronics, Kent, UK). After washing 4 times with 75 mM aq orthophosphoric acid, plates were dried, scintillant added and incorporated radioactivity measured in a scintillation counter (TopCount, Packard Instruments, Pangbourne, Berks, UK). Compounds for kinase assay were made up as 10 mM stocks in DMSO and diluted into 10% DMSO in assay buffer. Data was analysed using curve-fitting software (XLfit version 4.0.2, IDBS, Guildford, Surrey, UK) to determine IC50 values (concentration of test compound which inhibits kinase activity by 50%).

[3] = tested on: A2780; experiment: MTT cytotoxicity assay, A2780; format: cell-based; settings: Homo sapiens, after incubation
Description: (§2) The compounds of the invention were subjected to a standard cellular proliferation assay using human tumour cell lines obtained from the ATCC (American Type Culture Collection, 10801 University Boulevard, Manessas, Va. 20110-2209, USA). […] C.; Thomas, D. G.; Darling, J. L. Anti Cancer Drugs 1996, 7, 331-8; Loveland, B. E.; Johns, T. G.; Mackay, 1. R.; Vaillant, F.; Wang, Z. X.; Hertzog, P. J. Biochemistry International 1992, 27, 501-10). In short: cells were seeded into 96-well plates according to doubling time and incubated overnight at 37° C. […] MTT was made up as a stock of 5 mg/mL in cell media and filter-sterilised. Media was removed from cells followed by a wash with 200 μL PBS. MTT solution was then added at 20 μL per well and incubated in the dark at 37° C. for 4 h MTT solution was removed and cells again washed with 200 μL PBS. MTT dye was solubilised with 200 μL per well of DMSO with agitation. Absorbance was read at 540 nm and data analysed using curve-fitting software (GraphPad Prism version 3.00 for Windows, GrapbPad Software, San Diego Calif. USA) to determine IC50 values (concentration of test compound which inhibits cell growth by 50%).

[4] = tested on: Mia-PaCa-2; experiment: MTT cytotoxicity assay, Mia-PaCa-2; format: cell-based; settings: Homo sapiens, after incubation
Description: as §2

[5] = biological target: T2, aurora-B (Homo sapiens, UniProt Q96GD4); experiment: Aurora-B (human) kinase assay; format: biochemical; settings: Table 3; read-out: Kinase inhibition Aurora B
T2 construct: purchased Upstate, Dundee, UK
Description: as §1, with “obtained aurora-B” for “obtained aurora-A”, “added 75” for “added 2-5”, “of pre-activated” for “of active”, “for 60” for “for 30”
Aurora-B (human, Upstate, Dundee, UK) was pre-activated immediately prior to kinase assay in appropriate buffers (20 mM Tris, 25 mM β-glycerophosphate, 5 mM EGTA, 1 mM DTT, 1 mM sodium vanadate, pH 7.5) by incubating 15 μg of enzyme with 4 μg INCENP (Upstate, Dundee, UK) in the presence of MgATP mix (15 mM MgCl2+100 μM ATP) for 15 min at 30° C.

[6] = Table 2, read-out: Kinase inhibition IC50 CDK7H
[7] = Table 2, read-out: Kinase inhibition IC50 Aurora A
[8] = Table 3, read-out: Kinase inhibition CDK7H
[9] = Table 3, values without asterisk, read-out: Kinase inhibition Aurora A

Sequence of CDK7/cyclin H (P50613 whole entry): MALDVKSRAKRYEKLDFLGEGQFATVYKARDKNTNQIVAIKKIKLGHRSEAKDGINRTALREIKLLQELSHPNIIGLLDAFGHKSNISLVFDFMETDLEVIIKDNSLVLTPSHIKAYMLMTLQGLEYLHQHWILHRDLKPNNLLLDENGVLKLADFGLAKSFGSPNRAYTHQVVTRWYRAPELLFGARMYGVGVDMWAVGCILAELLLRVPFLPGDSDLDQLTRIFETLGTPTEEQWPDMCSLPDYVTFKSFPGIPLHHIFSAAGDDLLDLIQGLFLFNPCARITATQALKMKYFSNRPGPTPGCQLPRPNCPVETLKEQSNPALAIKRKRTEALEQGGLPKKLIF
Sequence of CDK7/cyclin H (P51946 whole entry partner): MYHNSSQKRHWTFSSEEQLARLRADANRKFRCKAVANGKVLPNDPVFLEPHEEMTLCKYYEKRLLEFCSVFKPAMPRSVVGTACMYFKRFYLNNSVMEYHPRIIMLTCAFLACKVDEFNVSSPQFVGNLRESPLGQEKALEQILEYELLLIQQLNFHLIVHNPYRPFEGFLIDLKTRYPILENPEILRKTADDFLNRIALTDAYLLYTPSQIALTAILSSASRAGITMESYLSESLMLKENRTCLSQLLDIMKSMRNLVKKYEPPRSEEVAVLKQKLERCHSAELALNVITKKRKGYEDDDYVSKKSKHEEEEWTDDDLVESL
T2 sequence (Q96GD4 whole entry): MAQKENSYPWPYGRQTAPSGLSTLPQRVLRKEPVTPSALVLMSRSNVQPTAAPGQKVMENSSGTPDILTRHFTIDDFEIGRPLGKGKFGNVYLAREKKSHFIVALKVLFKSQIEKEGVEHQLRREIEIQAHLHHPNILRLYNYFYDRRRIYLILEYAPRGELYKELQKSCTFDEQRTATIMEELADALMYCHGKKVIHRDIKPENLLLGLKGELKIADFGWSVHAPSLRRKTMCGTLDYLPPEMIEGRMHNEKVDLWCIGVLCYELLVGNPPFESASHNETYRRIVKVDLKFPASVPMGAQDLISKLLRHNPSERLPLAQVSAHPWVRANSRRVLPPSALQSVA

Compound	IC50 [1, 6]	IC50 [2, 7]	IC50 [1, 8]	IC50 [2, 9]	IC50 [5]	IC50 [3]	IC50 [4]
O=[N+]([O-])c1cccc(Nc2nccc(-c3c[nH]c4ccccc34)n2)c1 [Compound 2, [4-(1H-Indol-3-yl)-pyrimidin-2-yl]-(3-nitro-phenyl)-amine]	> 100 µM	270 nM	–	–	–	–	–
Fc1ccc(Nc2nccc(-c3c[nH]c4ccccc34)n2)cc1 [Compound 3, (4-Fluoro-phenyl)-[4-(1H-indol-3-yl)-pyrimidin-2-yl]-amine]	> 100 µM	1100 nM	–	–	–	–	–
COc1ccc(Nc2nccc(-c3c[nH]c4ccccc34)n2)cn1 [Compound 4, [4-(1H-Indol-3-yl)-pyrimidin-2-yl]-(6-methoxy-pyridin-3-yl)-amine]	5.4 µM	240 nM	5.44 µM	–	–	–	–
c1ccc2c(-c3ccnc(Nc4ccc(N5CCOCC5)cc4)n3)c[nH]c2c1 [Compound 5, [4-(1H-Indol-3-yl)-pyrimidin-2-yl]-(4-morpholin-4-yl-phenyl)-amine]	> 10 µM	58 nM	–	804 nM	260 nM	1030 nM	2400 nM
CC(=O)N1CCN(c2ccc(Nc3nccc(-c4c[nH]c5ccccc45)n3)cc2)CC1 [Compound 6, 4-(1H-indol-3-yl)-N-(4-acetylpiperazin-1-ylphenyl)pyrimidin-2-amine]	–	–	–	130 nM	125 nM	789 nM	785 nM
c1ccc2c(-c3ccnc(Nc4ccc(N5CCNCC5)cc4)n3)c[nH]c2c1 [Compound 7, 4-(1H-indol-3-yl)-N-(4-piperazin-1-ylphenyl)pyrimidin-2-amine]	–	–	2.53 µM	221 nM	170 nM	86 nM	166 nM

Now from value to compound, other results behind:

IC50 [1, 6]	IC50 [2, 7]	IC50 [1, 8]	IC50 [2, 9]	IC50 [5]	Compound	IC50 [3]	IC50 [4]
–	–	6.67 µM	277 nM	158 nM	CC1CN(c2ccc(Nc3nccc(-c4c[nH]c5ccccc45)n3)cc2)CC(C)O1 (centres unmarked) [Compound 9]	5450 nM	6230 nM
–	–	5.23 µM	282 nM	729 nM	CN(C)c1ccc(Nc2nccc(-c3c[nH]c4ccccc34)n2)cc1 [Compound 10, N′-[4-(1H-indol-3-yl)pyrimidin-2-yl]-N,N-dimethylbenzene-1,4-diamine]	485 nM	5480 nM
–	–	–	53.4 nM	66.4 nM	COc1cc(Nc2nccc(-c3c[nH]c4ccccc34)n2)cc(OC)c1OC [Compound 12, 4-(1H-indol-3-yl)-N-(3,4,5-trimethoxyphenyl)pyrimidin-2-amine]	43 nM	77 nM
–	–	–	112 nM	228 nM	COc1cc(Nc2nccc(-c3c[nH]c4ccccc34)n2)ccc1N1CCOCC1 [Compound 13, 4-(1H-indol-3-yl)-N-(3-methoxyl-4-morpholin-4-ylphenyl)pyrimidin-2-amine]	2480 nM	6730 nM
–	–	6.66 µM	37.7 nM	24.6 nM	CC(=O)N1CCN(c2ccc(Nc3nccc(-c4c(C)[nH]c5ccccc45)n3)cc2)CC1 [Compound 22]	299 nM	778 nM
–	–	3.47 µM	91.7 nM	76.1 nM	CC(=O)N1CCN(c2ccc(Nc3nccc(-c4c[nH]c5c(C)cccc45)n3)cc2)CC1 [Compound 23]	448 nM	789 nM

— patent US20090318446A1, “4-(1H-Indol-3-yl)-Pyrimidin-2-Ylamine Derivatives and Their Use in Therapy” (Cyclacel Limited, priority 2005, published 2009)
